US20030236301A1, “Liposomal delivery of vitamin E based compounds” (priority 2001, published 2003)

Key:
66 c1.4-GFP tumors [1] = assay: KI-67 immunohistochemistry of cell proliferation in tumors; type: in vivo, Balb/c mice; conditions: liposomal formulation by aerosol, vs control
[2] = system: 66 c1.4 GFP murine mammary tumor cells; assay: Tumor growth of 66 c1.4-GFP mammary tumor cells in Balb/c mice (tumor volume); conditions: Example 18: liposomal formulation by aerosol, 75 mg in nebulizer/day
Protocol: 66 c1.4-GFP cells were harvested by trypsinization, centrifuged, resuspended in McCoy's media, containing no supplements at a density of 2×10^5/100 μl. Mice were injected in the inguinal area at a point equal distance between the 4th and 5th nipples on the right side using a 23 gauge needle.
50 mice were assigned (10 per group) to aerosol treatment, aerosol control, oral treatment, oral control, or to the no treatment group so that the average tumor volume for all groups were closely matched. […] Tumors were measured using calipers every other day, and volumes were calculated using the formula: volume (mm^3) [width (mm)^2×length (mm)]/2. Body weights were determined weekly.
Balb/c mice were injected with 200,000 66 c1.4 GFP cells subcutaneous in the mammary fat pad area between the 4th and 5th nipple on the right side of the body.
Mice are injected with 200,000 66 c1.4 GFP murine mammary tumor cells as described on day 0. Treatments are initiated on day 9 when tumors reached 1-3 mm in size. Aerosol treatments of α-TEA liposomes (5 mg α-TEA/mouse) are administered daily for 16 days (FIG. 8). Data represent the mean+/−Standard Error (SE), N=10 mice for control and treatment groups.
Balb/c mice were injected s.c. with 2×10^5 66 c1.4-GFP cells in the inguinal area between the 4th and 5th nipple on the right side of the body. When tumors reached 2×2-4×4 mm (9 days after tumor injection), mice were placed into 5 groups ((Group 1: untreated control, Group 2: liposome/aerosol control, Group 3: liposomal α-TEA aerosol treatment, Group 4: peanut oil/gavage control, Group 5: α-TEA in peanut oil/gavage treatment) of 10 mice/group) such that the mean tumor volume of each group was closely matched. Daily treatments were initiated on day 9 after tumor injection.
Balb/c mice were injected with 200,000 66 c1.4 GFP cells subcutaneous in the mammary fat pad area between the 4th and 5th nipple on the right side of the body. […] Animals were treated with α-TEA in liposome, vitamin E succinate in liposome, or control liposome alone via aerosol, 7 days per week, for 21 days. Animals were given 75 mg compound via nebulization per day such that each animal received 36 μg compound per day.
The size of the tumors, 9-21 days after injection of 200,000 66 c1.4 GFP cells between the 4th and 5th nipple on the right side of each mouse, is determined. Treatments are initiated on day 9 after tumor inoculation. Each group consists of n=10+/−SE. Gavage Treatment=Treatments of 5 mg of α-TEA in ethanol and peanut oil (0.1 ml volume) are administered daily starting on day 9 after tumor inoculation and continuing through day 21. Gavage Control=Mice received peanut oil and ethanol alone (0.1 ml volume)/daily, starting on day 9 after tumor inoculation and continuing through day 21. Data (tumor size) are depicted as the mean+/−standard error for days 9, 11, 13, 15, 17, 19, and 21.
Balb/c mice were injected with 200,000 66 c1.4 GFP cells subcutaneous in the mammary fat pad area between the 4th and 5th nipple on the right side of the body. […] Animals were treated with α-TEA in liposome vitamin E succinate in liposome, or control liposome alone via oral gavage, 2 times per day, 7 days per week, for 21 days. Animals were given a total of 6 mg compound per day.

66 c1.4-GFP tumors [3] = assay: CD31 immunohistochemistry of tumor blood vessel numbers; type: in vivo, Balb/c mice; conditions: liposomal formulation by aerosol, vs control
[4] = system: 66 c1.4 GFP murine mammary tumor cells; assay: TUNEL assay for apoptosis in vivo in 66 c1.4-GFP tumor sections; set-up: species or system Balb/c mice; conditions: liposomal formulation by aerosol, vs control
Description: Deparaffinized sections (5 μm) of tumor tissue were used to assess apoptosis using reagents supplied in the ApopTag In Situ Apoptosis Detection kit (Intergen, Purchase, N.Y.) according to the manufacturer's instructions. Nuclei that stained brown were scored as positive for apoptosis and those that stained blue were scored as negative. At least sixteen 400× microscopic fields were scored per tumor. Data are presented as the mean±S.E. number of apoptotic cells counted in three separate tumors from each group. Pictures of tumor tissue were taken at 1000× magnification.

SMILES: Cc1c(C)c2c(c(C)c1O)CCC(C)(CCCC(C)CCCC(C)CCCC(C)C)O2 (racemic) [dl-α-tocopherol]
- % Reduction of KI67 cell proliferation (66 c1.4-GFP tumors [1]): 33%
- inhibition of tumor growth ([2]; day 15 of treatment): 81%
- inhibition of tumor growth ([2]; day 17 of treatment): 73%
- % Reduction of CD31 tumor blood vessel numbers (66 c1.4-GFP tumors [3]): 51%
- % Enhanement of TUNEL positive apoptotic cells [4]: 44%
